Patent US9661854B2, “Molecules having pesticidal utility, and intermediates, compositions, and processes, related thereto” (Dow AgroSciences LLC, priority 2015, dated 2017)

Legend:
Format in all cases: in vivo
[1] = system: Beet Armyworm (Spodoptera exigua, LAPHEG); test: Bioassay on Beet Armyworm (BAW), 128-well diet tray assay; conditions: 168 h, 50 μg/cm^2 on artificial diet, second instar larvae, 25° C., five to seven days, average of eight wells, read-out: BAW % Control (or Mortality) rating
Method in brief: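 Second-instar larvae, one to five per well, fed artificial diet surface-treated with 50 μg/cm^2 test molecule in 90:10 acetone-water, dried before infestation; eight wells per molecule. Held at 25 °C, 14:10 light-dark for five to seven days; percent mortality averaged over wells.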

[2] = system: Cabbage Looper (Trichoplusia ni, TRIPNI); test: Bioassay on Cabbage Looper (CL), 128-well diet tray assay; conditions: 168 h, 50 μg/cm^2 on artificial diet, second instar larvae, 25° C., five to seven days, average of eight wells, read-out: CL % Control (or Mortality) rating
Method in brief: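 Second-instar larvae (one to five per well) placed on artificial diet treated with 50 μg/cm^2 test molecule in 90:10 acetone-water, dried; eight wells per molecule. Held at 25° C., 14:10 light-dark, for five to seven days. Percent mortality scored per well and averaged over the eight wells.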

[3] = system: Yellow Fever Mosquito (Aedes aegypti, AEDSAE); conditions: about 1 day-old larvae, master plate 4000 ppm solution diluted, room temperature, scored after 3 days
Protocol: Example B: Bioassays on Yellow Fever Mosquito (Aedes aegypti, AEDSAE (“YFM”)
Certain molecules disclosed in this document were tested against YFM using procedures described in the following paragraph. In the reporting of the results, the “YFM Rating Table” was used (See Table Section).
Master plates containing 400 μg of a molecule dissolved in 100 μL of dimethyl sulfoxide (DMSO) (equivalent to a 4000 ppm solution) are used. A master plate of assembled molecules contains 15 μL per well. To this plate, 135 μL of a 90:10 water/acetone mixture is added to each well. A robot (Biomek® NXP Laboratory Automation Workstation) is programmed to dispense 15 μL aspirations from the master plate into an empty 96-well shallow plate (“daughter” plate). There are 6 reps (“daughter” plates) created per master. The created “daughter” plates are then immediately infested with YFM larvae.
The day before plates are to be treated, mosquito eggs are placed in Millipore water containing liver powder to begin hatching (4 g into 400 mL). After the “daughter” plates are created using the robot, they are infested with 220 μL of the liver powder/larval mosquito mixture (about 1 day-old larvae). After plates are infested with mosquito larvae, a non-evaporative lid is used to cover the plate to reduce drying. Plates are held at room temperature for 3 days prior to grading. After 3 days, each well is observed and scored based on mortality. The results are indicated in the table entitled “Table ABC: Biological Results” (See Table Section).

## CC(C)c1ccccc1N1C(=O)CS/C1=N\C(=O)Nc1ccc(CCc2ncn(-c3ccc(Br)cc3)n2)cc1 [F77, (Z)-1-(4-(2-(1-(4-Bromophenyl)-1H-1,2,4-triazol-3-yl)ethyl)phenyl)-3-(3-(2-isopropylphenyl)-4-oxothiazolidin-2-ylidene)urea]
[1]
  mortality at 50 µg/cm2: 50 to 100%
[2]
  mortality at 50 µg/cm2: 50 to 100%
[3]
  YFM % Control (or Mortality) rating: A (80-100)
